Results as given in patent publication US10780061B2, “Composition comprising farnesol and use thereof” (Daegu Gyongbuk Institute of Science and Technology, priority 2014, dated 2020).

Assays:
[1] = Grip strength of old mice; assay type: in vivo; settings: old mouse, farnesol diet 4 months, vs negative control old mouse
Method: 22-month-old female mice (weighing 30 g) are fed with a control diet and a farnesol diet for 4 months. That is, 22-month-old mice are fed for 4 months, and then 26-month-old mice are analyzed. […] The same mouse is used as a control group, except that it is fed with a diet containing no farnesol. Muscle strength, energy expenditure, glucose tolerance, and fat accumulation of each mouse are evaluated. […] To measure grip strength as an index of mouse muscle strength, a grip strength meter (Bioseb) is used. For measurement of grip strength of mouse, its front paws are allowed to grip the grid, and its tail is then pulled back steadily and horizontally. When the animal releases the grid, the value is used as grip strength. The maximal grip strength values of individual mice are measured 5 times, and mean values are obtained. Grip strength is expressed as a force (g, gram) per weight.

[2] = Glucose tolerance test of old mice; assay type: in vivo; settings: old mouse, 1 g/kg glucose i.p. after overnight fast
Method: 22-month-old female mice (weighing 30 g) are fed with a control diet and a farnesol diet for 4 months. That is, 22-month-old mice are fed for 4 months, and then 26-month-old mice are analyzed. […] The same mouse is used as a control group, except that it is fed with a diet containing no farnesol. Muscle strength, energy expenditure, glucose tolerance, and fat accumulation of each mouse are evaluated.

AMPK and p38 MAPK = test: Immunoblot of pAMPK and pp38 in farnesol-treated C2C12 myoblasts; assay type: cell-based; settings: 0.1 μM farnesol, 48 hours
Method: The C2C12 myoblasts are cultured in DMEM containing 2% horse serum and 0.1 μM farnesol dissolved in DMSO for 48 hours. A control group is cultured in the same manner as above, except that only DMSO is added. Other culture conditions and immunoblot procedure are the same as those described in Section 1 of Example 2. PGC-1α, pAMPK, pp38 and basal forms thereof are subjected to immunoblotting.

[3] = test system: PARIS-overexpressing muscles; test: SDH staining of PARIS-overexpressing tibialis anterior muscles; assay type: in vivo, mouse; settings: 22-month-old mice, PARIS-GFP adenovirus in tibialis anterior muscle, 4 days
Method: Control-GFP adenovirus and PARIS-GFP adenovirus are injected into the tibialis anterior muscles of 22-month-old mice (female, body weight of 30 g), respectively. The old mice are fed with a predetermined diet, and 4 days later, muscles are collected and subjected to histological staining and qRT-PCR. For PARIS overexpression, human full-length PARIS cDNA (IMAGE: 30347892; Open Biosystems) (SEQ ID NO:9) is introduced into BamH1 and EcoR1 restriction sites of a viral vector, AAV/CBA-WPRE-bGHpA (containing chicken beta-actin (CBA) promoter and woodchuck hepatitis virus post-transcriptional-regulatory element (WPRE), and bovine growth hormone polyadenylation signal sequence) to prepare a full-length PARIS cDNA-containing AAV/CBA-WPRE-bGHpA vector, and this vector is introduced into the adenovirus-introduced cells. A high titer adenovirus […] is a viral vector manufactured by Viral Vector Core Facility (University of Iowa Carver College). Virus transduction efficiency is evaluated by GFP fluorescence. To evaluate PARIS overexpression and administration effect of farnesol, frozen sections of tibialis anterior muscles are stained for SDH enzyme activity.
Further, similar to the result in C2C12 myoblast models, an oxidative metabolism reduced by PARIS overexpression is also recovered by farnesol treatment in animal models. […]

[4] = test system: C2C12 myoblasts introduced with FLAG-PARIS WT or C631S; test: Differentiation of PARIS WT or PARIS C631S gene-introduced C2C12 myoblasts (Mhc immunostaining); assay type: cell-based; settings: C2C12, 0.1 M farnesol, 24 hours
Method: Additionally, it is examined whether the presence of farnesol affects farnesylation of PARIS protein in skeletal muscles. To this end, the FLAG-PARIS wild-type (WT) gene or the FLAG-PARIS C631S mutant (hereinafter, referred to as MT) gene is overexpressed in C2C12 myoblasts, and then farnesol is treated thereto, followed by measurement of differentiation. The muscles of mice are introduced with AAV-GFP, AAV-PARIS WT or AAV-PARIS C631S viral vector, and mice are bred by feeding with farnesol, followed by measurement of mitochondrial enzyme activity.
In FIG. 5D, C2C12 myoblasts are introduced with FLAG-PARIS wild-type (WT) gene or FLAG-PARIS C631S mutant (hereinafter, referred to as “MT”) gene, and cultured in the presence of […] farnesol in DMEM containing 10% FBS for 24 hours, followed by measurement of muscle differentiation and mitochondrial enzyme activity. Muscle differentiation is examined by immunostaining using a muscle differentiation marker, Mhc. […] The percentage of Mhc-negative nuclei indicates the cells showing no formation of red-colored myotube among the nucleus-stained myoblasts of A.

[5] = test system: Myh2a-positive muscle fibers; test: Myh2a immunostaining of hind limb muscles, high fat diet (PGC-1α-inhibited) model; assay type: in vivo, mouse; settings: high fat diet with 0.5% compound, 3 months
Description: (§1) To prepare the PGC-1α-inhibited model, 3-month-old mouse (female, body weight of 20 g) is fed with high fat diet, in which fat is increased to 60%, compared to a negative control group, for 5 days (short-term effect) or 3 months (long-term effect). The negative control group is fed with a general diet. Farnesol is mixed in the high fat diet at a content of 0.5% (weight of farnesol/weight of diet). A positive control group is fed with high fat diet containing a type II diabetes drug, metformin at a content of 0.5% (weight of metformin/weight of diet). Mice are fed with the general diet, the high fat diet, and the high fat diet containing farnesol or metformin for 3 months, and then hind limbs are removed to analyze muscle differentiation and mitochondrial enzyme activity.
In FIG. 6C, SD represents a standard diet as a negative control group, HFD represents a high fat diet, and HFD+Farnesol or HFD-metformin represents farnesol or metformin-added HFD, respectively.

SDH enzyme activity = test: SDH staining of hind limb muscles, high fat diet model; assay type: in vivo, mouse; settings: high fat diet with 0.5% compound, 3 months
Description: as §1

CC(C)=CCC/C(C)=C/CC/C(C)=C/CO [farnesol, (2E,6E)-3,7,11-trimethyldodeca-2,6,10-trien-1-ol]
grip strength [1]: significantly increased | blood glucose level in glucose tolerance test [2]: remarkably low | pAMPK level (AMPK and p38 MAPK): does not affect | pp38 level (AMPK and p38 MAPK): does not affect | oxidative metabolism (SDH staining) reduced by PARIS overexpression [3]: recovered | percentage of Mhc-negative nuclei, FLAG-PARIS C631S [4]: does not significantly decrease | percentage of Mhc-negative nuclei, FLAG-PARIS WT [4]: significantly decreases | percentage of Myh2a-postive muscle fibers [5]: significantly increases | percentage of muscle fibers showing increased SDH enzyme activity (SDH enzyme activity): increased
